Earlier results, collected in US20220000855A1, “AN AURORA A KINASE INHIBITOR FOR USE IN THE TREATMENT OF NEUROBLASTOMA” (Eli Lilly and Company, priority 2018, published 2022).

Settings: background statement

For COc1cc(Nc2ncc3c(n2)-c2ccc(Cl)cc2C(c2c(F)cccc2OC)=NC3)ccc1C(=O)O [alisertib], the “neutropenia and other toxic effects associated with use” value is listed as “unacceptably high levels of neutropenia and other toxic effects”.

In the case of Cc1cc(Nc2cc(N3CCN(C)CC3)nc(Sc3ccc(NC(=O)C4CC4)cc3)n2)[nH]n1 [tozasertib], the “neutropenia and other toxic effects associated with use” value is listed as “unacceptably high levels of neutropenia and other toxic effects”.
